Experimental data published in patent US20100130408A1, “USE OF MODIFIED CYCLOSPORINS” (priority 2006, published 2010).

Columns and labels:
HSCs [1] = assay: Type 1 collagen assay (ELISA of culture media); assay type: cell-based; details: rat HSCs
Experimental: (§1) A. In vitro Cell culture: HSCs are isolated from the liver of male Wistar rats by sequential in situ perfusion with collagenase and digestion with pronase, followed by centrifugation in a double-layered (17%/11.5%) metrizamide solution (Sigma. Chemical, St. Louis, Mo.), as described in Kato, et al, J. Hepatol (1999) 31:91-99. HSCs are cultured in Dulbecco's modified Eagle's medium (DMEM) with 10% fetal calf serum (FCS). Experiments are performed on cells between the third and fourth serial passages. To measure […] matrix metalloproteinase (MMP-1) and tissue inhibitor of matrix metalloproteinase (TIMP-1), TWNT-4 cells which is a human cell line derived from HSCs as produced according to Shibata, et al, Cell Transplant (2003) 12:499-507 is used for evaluating the effects of Fasudil on MMP-1 and TIMP-1. TWNT-4 cells are cultured in DMEM with 10% FCS as reported previously (Id). NIM811 (Novartis Pharma AG, Basel, Switzerland) is dissolved in DMEM and added to cultures. Cell viability of HSCs is more than 90% under serum-free conditions for 24 h in the presence of 2 μM NIM811.
Type 1 collagen assay: Cultured HSCs are incubated in serum-free medium in the presence or absence of NIM811 for 24 h. Type I collagen is determined in culture media by ELISA as described in Iwamoto, et al, J. Hepatol (2000) 32:762-770. […]

TWNT-4 cells = assay: gene expression using real time RT-PCR; assay type: cell-based, human; details: 0.5 μM
Experimental: Analysis of gene expression using real time RT-PCR: Total RNA is prepared from TWNT-4 cells with Trizol reagent (Invitrogen, Carlsbad, Calif., USA), which are maintained in either the presence or absence of NIM811 in 10% FCS for 24 h. cDNA is synthesized from […] RNA with GeneAmp™ RNA PCR (Applied Biosystems, Branchburg, N.J., USA) using random hexamers. Real-time PCR is performed using LightCycler-FastStart DNA Master SYBR Green 1 (Roche, Tokyo, Japan) as described in Nakamuta, et al, Int J. Mol Med (2005) 16(4):631-635. A reaction mixture (20 μl) is used containing LightCycler-FastStart DNA Master SYBR Green 1, 4 mM MgCl2, 0.5 μM of the upstream and downstream PCR primers, and […] of the first strand cDNA as a template. To control for variations in the reactions, all PCRs are normalized against glyceraldehyde-3-phosphate dehydrogenase (GAPDH) expression. The primers which may be used are as follows: 5′-[…]-3′ (forward primer) (SEQ ID NO. 1) and 5′-[…]-3′ (reverse primer)(SEQ ID NO. 2) for human type I collagen a1 chain (GenBank™ accession number NM-000088) (21); 5′-[…]-3′ (forward primer)(SEQ ID NO. 3) and 5′-[…]-3′ (reverse primer) for human a-SMA (GenBank™ accession number […]); 5′-[…]-3′ (forward primer) and 5′-[…]-3′ (reverse primer) for MMP-1 (GenBank™ accession number NM002421); 5′-[…]-3′ (forward primer) and 5′-[…]-3′ (reverse primer)(SEQ ID NO. 4) for TIMP-1 (GenBank™ accession number NM003254); 5′-[…]-3′ (forward primer)(SEQ ID NO. 5) and 5′-[…]-3′ (reverse primer)(SEQ ID NO. 6) for Smad7 (Quan, et al, J Biol Chem (2005) 80:8079-8085); 5′-[…]-3′ (forward primer)(SEQ ID NO. 7) and 5′-[…]-3′ (reverse primer)(SEQ ID NO. 8) for transforming growth factor □ receptor I (TGFβRI) (Woszcyk et al, Med Sci Monit (2004) 10:C33-C37)).

HSCs [2] = assay: BrdU incorporation (cell proliferation ELISA); assay type: cell-based, rat
Experimental: as §1, with “Cell viability of HSCs is more than 90% under serum-free conditions for 24 h in the presence of 2 μM NIM811.” left out
Analysis of BrdU incorporation: HSC incorporation of BrdU is measured using a cell proliferation ELISA (Roche Diagnostics GmbH, Mannheim, Germany) as described in Higashi, et al, J. Lab Clin Med (2005) 145(6):316-322. […] BrdU incorporation is estimated by measuring the […].

HSCs [3] = assay: Analysis of apoptosis (TUNEL); assay type: cell-based, rat; details: 2 μM
Experimental: as §1, with “Cell viability of HSCs is more than 90% under serum-free conditions for 24 h in the presence of 2 μM NIM811.” left out
Analysis of Apoptosis: HSCs are maintained in either the presence or absence of NIM811 in serum-free conditions for 24 h. […] Cells are then stained with Hoechst 33342, and analyzed by the TUNEL method using an In Situ Cell Death Detection Kit (Roche) according to the manufacturer's instructions. […] At least 100 cells from three independent experiments and from three different cell preparations are counted for each condition.

TGFβ Signaling Pathways = assay: Western blot analysis for phospho- and nonphospho-Smad2 and Smad3; assay type: cell-based, human; details: 0.5 μM
Experimental: Western blot analysis for phospho- and nonphospho-Smad2 and Smad3: Western blot analysis is performed as described above for MAPK analysis and probed with a primary antibody for Smad2, phospho-Smad2 (Thr/Tyr), Smad3, or phospho-Smad3 (Thr/Tyr) (Cell Signaling Technology, Danvers, Mass.). For comparison, the ratios of phosphorylated Smad2 and Smad3 to nonphosphorylated Smad2 and Smad3, respectively, are calculated from densitometric data.

HCV = details: Watashi et al., Hepatology (2003); cited from earlier work

C/C=C/C[C@@H](C)[C@@H](O)[C@H]1C(=O)N[C@@H](CC)C(=O)N(C)CC(=O)N(C)[C@@H]([C@@H](C)CC)C(=O)N[C@@H](C(C)C)C(=O)N(C)[C@@H](CC(C)C)C(=O)N[C@@H](C)C(=O)N[C@H](C)C(=O)N(C)[C@@H](CC(C)C)C(=O)N(C)[C@@H](CC(C)C)C(=O)N(C)[C@@H](C(C)C)C(=O)N1C [NIM811]
reduction of collagen accumulation (HSCs [1]; 0.5 μM): approximately 50% | suppression of collagen accumulation (HSCs [1]; increasing concentrations, 24 h): concentration-dependent suppression of collagen accumulation | enhancement of expression of Smad7 (TWNT-4 cells): ~2 fold | expression of TIMP-1 (mRNA) (TWNT-4 cells): did not change | increase of expression of MMP-1 (mRNA) (TWNT-4 cells): ~2 fold | reduction of expression of type I collagen (mRNA) (TWNT-4 cells): roughly 30% | suppression of TGFβRI expression (TWNT-4 cells): ~50% | cell growth of HSCs (HSCs [2]): suppresses cell growth of HSCs in a concentration-dependent manner | decrease of new DNA synthesis (BrdU incorporation) (HSCs [2]; 2.0 μM): ~30% | apoptosis (HSCs [3]): no apoptosis is observed | suppression of phosphorylation of Smad2 (TGFβ Signaling Pathways): ~70% | suppression of phosphorylation of Smad3 (TGFβ Signaling Pathways): ~60% | replication of HCV in vitro (HCV): suppresses replication of HCV replication in vitro
